Measurements as given in patent US7026308B1, “Topical anti-microbial compositions” (The Procter & Gamble Company, priority 1999, dated 2006).

Tests used:
[1] = test system: Malassezia furfur (ATCC 14521); assay: Minimum Inhibitory Concentration (MIC) in mDixon agar; assay type: cell-based; details: for MIC (ppm of metal ion) Alone: M. furfur, 5 days 30°; for MIC (ppm of metal ion) +4 ppm ZPT: metal ion in combination with 4 ppm ZPT (sub-MIC); for MIC (ppm of metal ion) +0.5 ppm ZPT: metal ion in combination with 0.5 ppm ZPT (sub-MIC); for MIC (ppm of metal ion) +2 ppm ZPT: metal ion in combination with 2 ppm ZPT (sub-MIC)
[2] = test system: Malassezia furfur (ATCC 14521); assay: Kill Rate Test (KRT) in mDixon broth; assay type: cell-based
Protocol: Experiments were conducted to investigate the efficacy of the composition of the present invention to inhibit the survival, growth, and proliferation of microorganisms in topical compositions. The test microorganism was Malassezia furfur. The Kill Rate Test (KRT) results are indicative of anti-fungal efficacy. Generally, the greater the inhibition of fungal growth in this test, the better the anti-fungal efficacy of the compound(s) tested. A flask containing mDixon broth medium (see Gueho, et al. Antoinie Leeuwenhoek (1996), no. 69, 337–55, which description is incorporated by reference herein) was inoculated with Malassezia furfur. Specific concentrations of active(s) were then added to the flask Samples were then withdrawn from the flask at specified time points, diluted in sterile water, and spread across the surface of a mDixon agar plate. […] The lower the CFU/ml count, the better activity the active(s) have against M. furfur. […] Experimental Procedure • 1. […] For Mg^2+, Ag^+, Mn ^2+, Bi^3+, and Na^+ Step 8 was repeated at the 24 and 48 hour time points.

[3] = Table 2(a), 0.05% metal salt (with 10 ppm ZPT where labelled)
[4] = Table 2(a), 0.5% metal salt (with 10 ppm ZPT where labelled)
[5] = Table 2(b), 0.05% metal salt (with 10 ppm ZPT where labelled)
[6] = Table 2(b), 0.5% metal salt (with 10 ppm ZPT where labelled)

For `[Hg+2]` [Mercury (2+)], the “MIC (ppm of metal ion) Alone” value [1] was 50 ppm and the “MIC (ppm of metal ion) +4 ppm ZPT” value [1] was 5 ppm.
In the case of `[Cl][Bi]([Cl])[Cl]` [BiCl3], the “Plate Area Colonized, 0 Hours” value [2, 3] is reported as 3.97E+06 mm2, the “Plate Area Colonized, 24 Hours” value [2, 3] is reported as 1.96E+07 mm2 and the “Plate Area Colonized, 48 Hours” value [2, 3] is reported as 3.03E+06 mm2. For the same molecule, the “Plate Area Colonized, 0 Hours” value [2, 4] was 3.97E+06 mm2, the “Plate Area Colonized, 24 Hours” value [2, 4] was 1.11E+06 mm2 and the “Plate Area Colonized, 48 Hours” value [2, 4] was 3.42E+05 mm2.
In the case of `O=S(=O)([O-])[O-].[Na+].[Na+]` [Na2SO4], the “Plate Area Colonized, 0 Hours” value [2, 3] is reported as 3.97E+06 mm2, the “Plate Area Colonized, 24 Hours” value [2, 3] is reported as 3.75E+07 mm2 and the “Plate Area Colonized, 48 Hours” value [2, 3] is reported as 3.42E+06 mm2. The “Plate Area Colonized, 0 Hours” value [2, 4] was 3.97E+06 mm2, the “Plate Area Colonized, 24 Hours” value [2, 4] was 1.44E+07 mm2 and the “Plate Area Colonized, 48 Hours” value [2, 4] was 2.95E+06 mm2.
For `O=S(=O)([O-])[O-].[Mn+2]` [MnSO4], the “Plate Area Colonized, 0 Hours” value [2, 3] was 3.97E+06 mm2, the “Plate Area Colonized, 24 Hours” value [2, 3] was 1.97E+07 mm2 and the “Plate Area Colonized, 48 Hours” value [2, 3] was 5.91E+06 mm2. For the same molecule, the “Plate Area Colonized, 0 Hours” value [2, 4] was 3.97E+06 mm2, the “Plate Area Colonized, 24 Hours” value [2, 4] was 1.16E+05 mm2 and the “Plate Area Colonized, 48 Hours” value [2, 4] was 2.35E+02 mm2.
For `O=S(=O)([O-])[O-].[Cu+2]` [CuSO4], the “Plate Area Colonized, 0 Hours” value [2, 5] was 2.12E+07 mm2, the “Plate Area Colonized, 4 Hours” value [2, 5] was 9.49E+07 mm2 and the “Plate Area Colonized, 24 Hours” value [2, 5] was 1.81E+08 mm2. The “Plate Area Colonized, 48 Hours” value [2, 5] was 3.32E+08 mm2, the “Plate Area Colonized, 0 Hours” value [2, 6] was 2.12E+07 mm2 and the “Plate Area Colonized, 4 Hours” value [2, 6] was 1.00E+00 mm2. For the same molecule, the “Plate Area Colonized, 24 Hours” value [2, 6] was 1.00E+00 mm2 and the “Plate Area Colonized, 48 Hours” value [2, 6] was 1.00E+00 mm2.
`[O-]n1ccccc1=S.[O-]n1ccccc1=S.[Zn+2]` [ZPT, zinc salt of 1-hydroxy-2-pyridinethione, reference compound] was tested, and the “Plate Area Colonized, 0 Hours” value ([2]; Table 2(a), 10 ppm) was 3.97E+06 mm2, the “Plate Area Colonized, 24 Hours” value ([2]; Table 2(a), 10 ppm) was 2.52E+05 mm2 and the “Plate Area Colonized, 48 Hours” value ([2]; Table 2(a), 10 ppm) was 2.30E+03 mm2. For the same molecule, the “Plate Area Colonized, 0 Hours” value ([2]; Table 2(b), 10 ppm) was 2.12E+07 mm2, the “Plate Area Colonized, 4 Hours” value ([2]; Table 2(b), 10 ppm) was 3.49E+07 mm2 and the “Plate Area Colonized, 24 Hours” value ([2]; Table 2(b), 10 ppm) was 6.44E+06 mm2. For the same molecule, the “Plate Area Colonized, 48 Hours” value ([2]; Table 2(b), 10 ppm) was 4.86E+05 mm2.
`O=S(=O)([O-])[O-].[Mg+2]` [MgSO4] was tested, and the “Plate Area Colonized, 0 Hours” value [2, 3] was 3.97E+06 mm2, the “Plate Area Colonized, 24 Hours” value [2, 3] was 4.35E+06 mm2 and the “Plate Area Colonized, 48 Hours” value [2, 3] was 9.68E+06 mm2. For the same molecule, the “Plate Area Colonized, 0 Hours” value [2, 4] was 3.97E+06 mm2, the “Plate Area Colonized, 24 Hours” value [2, 4] was 1.81E+07 mm2 and the “Plate Area Colonized, 48 Hours” value [2, 4] was 9.50E+06 mm2.
`O=S(=O)([O-])[O-].[Ag+].[Ag+]` [Ag2SO4] was tested, and the “Plate Area Colonized, 0 Hours” value [2, 3] was 3.97E+06 mm2, the “Plate Area Colonized, 24 Hours” value [2, 3] was 7.46E+05 mm2 and the “Plate Area Colonized, 48 Hours” value [2, 3] was 1.22E+05 mm2. For the same molecule, the “Plate Area Colonized, 0 Hours” value [2, 4] was 3.97E+06 mm2, the “Plate Area Colonized, 24 Hours” value [2, 4] was 1.65E+06 mm2 and the “Plate Area Colonized, 48 Hours” value [2, 4] was 1.00E+00 mm2.
In the case of `[Cu+2]` [Copper (2+)], the “MIC (ppm of metal ion) Alone” value [1] is reported as 5000 ppm, the “MIC (ppm of metal ion) +0.5 ppm ZPT” value [1] is reported as 5000 ppm and the “MIC (ppm of metal ion) +2 ppm ZPT” value [1] is reported as <0.5 ppm. For the same molecule, the “MIC (ppm of metal ion) +4 ppm ZPT” value [1] was <0.005 ppm and the “MIC (ppm of metal ion) +4 ppm ZPT” value ([1]; listed as copper ions) was “less than 0.005 ppm”.
With `[Zn+2]` [Zinc (2+)] the “MIC (ppm of metal ion) Alone” value [1] was 5000 ppm, the “MIC (ppm of metal ion) +0.5 ppm ZPT” value [1] was 500 ppm and the “MIC (ppm of metal ion) +2 ppm ZPT” value [1] was 50 ppm. For the same molecule, the “MIC (ppm of metal ion) +4 ppm ZPT” value [1] was 5 ppm.
With `O=S(=O)([O-])[O-].[Zn+2]` [ZnSO4] the “Plate Area Colonized, 0 Hours” value [2, 5] was 2.12E+07 mm2, the “Plate Area Colonized, 4 Hours” value [2, 5] was 8.14E+07 mm2 and the “Plate Area Colonized, 24 Hours” value [2, 5] was 7.22E+07 mm2. The “Plate Area Colonized, 48 Hours” value [2, 5] was 3.44E+08 mm2, the “Plate Area Colonized, 0 Hours” value [2, 6] was 2.12E+07 mm2 and the “Plate Area Colonized, 4 Hours” value [2, 6] was 2.21E+07 mm2. The “Plate Area Colonized, 24 Hours” value [2, 6] was 2.69E+06 mm2 and the “Plate Area Colonized, 48 Hours” value [2, 6] was 1.86E+05 mm2.
